Source: patent US5660992A, “Sialic acid/fucose based assay reagents and assay methods” (Glycomed Incorporated, priority 1995, dated 1997)

How the values were obtained:
[1] = tested on: neutrophil migration to the peritoneal cavity; test: Murine thioglycollate induced peritonitis model; format: in vivo, mice; conditions: FIG. 7; for inhibition of neutrophil migration into the peritoneum: female Swiss Webster mice, compound in tail vein, thioglycollate i.p., cells counted after three hours
Protocol: Mice were injected with saline alone (sal/-), thioglycollate and phosphate buffered saline (TG/PBS) or thioglycollate and GM 1221 or GM 1398 (TG/GM 1221 or TG/1398), and the number of neutrophils in the peritoneal cavity measured.
The efficaciousness of GM 1221, and GM 1398 was shown using a murine thioglycollate induced peritonitis model. The assay. materials and methods are known in the art, or are generally described by Lewinsohn, D. et al., J. Immun., 138:4313-4321 (1987), or Watson, S. et.al., Nature 349:164-166 (1991).
This assay measures the ability of the compounds to inhibit neutrophil migation to the peritoneal cavity, the migration being initiated by the presence of thioglycollate in the peritoneal cavity. Thioglycollate is a known and effective inflammatory agent that causes neutrophil migration into the mouse peritoneum when it is administered intraperitoneally. Lewinsohn, D. et al., J. Immun. (1987) 138:4313-4321.
Briefly, female Swiss Webster mice weighing about 25 grams were injected in the tail vein with 200 ul of phosphate buffered saline (PBS) with or without the appropriate compound. The pH of the solutions was adjusted to neutrality by the addition of either NaOH or HCL and sterilized by filtration through a 0.2 u filter.
Immediately following injection with the appropriate compound or PBS, the mice were injected intraperitoneally with 1 ml of thioglycollate medium prepared as described by the manufacturer, BBL. Three hours following injection of the thioglycollate solution the mice were sacrificed by CO2 asphyxiation, and the number of cells in the peritoneum removed by lavage with 5 ml of heparinized (5 U/ml) 0.9% sodium chloride solution containing 0.1% bovine serum albumin. Cell number was determined using a Coulter Counter. The cells were prepared for counting by diluting the lavage fluid with 1:50 of a commercial physiological isotonic solution, Isoton II, and the cells-lysed by adding S/P Lysing and Hemoglobin Reagent (1:100 final dilution). Cell nuclei were counted in a sized window with lower and upper limits set at 3.9 and 5.7 um, respectively.

L-selectin IgG chimera = target: T1, L-selectin IgG chimera (Homo sapiens, UniProt P14151); test: ELISA: blocking of L-selectin IgG chimera binding to 2,3sLex glycolipid; conditions: FIG. 5 and FIG. 6; several concentrations
T1 sequence (P14151 39-332 limits assumed): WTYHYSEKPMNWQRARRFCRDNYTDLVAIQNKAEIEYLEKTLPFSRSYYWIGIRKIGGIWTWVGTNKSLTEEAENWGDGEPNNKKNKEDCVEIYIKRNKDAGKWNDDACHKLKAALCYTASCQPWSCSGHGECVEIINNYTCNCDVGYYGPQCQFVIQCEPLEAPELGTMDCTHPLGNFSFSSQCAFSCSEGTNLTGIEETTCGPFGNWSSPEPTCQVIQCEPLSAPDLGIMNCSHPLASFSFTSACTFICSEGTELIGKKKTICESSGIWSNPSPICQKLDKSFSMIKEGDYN
Excerpt: FIG. 5 is a graph showing the results of Elisa assays carried out to determine the ability of three different compounds to block the binding of 2,3,sialyl-Le^x to L-selectin IgG chimera. The compounds tested were GM 1222, GM 1279 and GM 1398. The results are expressed as per cent of control binding.
FIG. 6 is a graph showing the results of Elisa assays carried out to determine the ability of GM 1221 to block the binding of 2,3,sialyl-Le^x to L-selectin IgG chimera. The results are expressed as per cent of control binding.
An ELISA assay was employed that uses recombinant fusion proteins composed of extracellular portions of the human selectins joined to human immunoglobulin heavy chain CH3, CH2, and hinge regions. See, for example, Walz et al., Science (1990) 250:1132; Aruffo et al., Cell (1991) 67:35; Aruffo et al., Proc. Natl. Acad. Sci. USA (1992) 89:2292. […]
The positive control is the signal produced by the soluble receptor when it is allowed to react with 2,3sLex glycolipid in the microtiter wells in the absence of any inhibitor. […] The signal produced by the receptor that had been previously treated with an inhibitor (recorded as O.D.), was divided by the signal produced by the positive control and multiplied by 100 to calculate the % receptor bound to the well, or as expressed in the figures, the per cent of control binding. […]

Compound	inhibition of neutrophil migration into the peritoneum [1]	additional inhibition of neutrophil migration relative to GM 1221 ([1]; same mouse peritonitis model, comparison with GM 1221)	inhibition of L-selectin binding to 2,3sLex glycolipid (per cent of control binding) (L-selectin IgG chimera)
CC(=O)N[C@H]1[C@H]([C@H](O)[C@H](O)CO)O[C@@](OCCCCCCO[C@@H]2O[C@@H](C)[C@@H](O)[C@@H](O)[C@@H]2O)(C(=O)O)C[C@@H]1O [GM 1398, 1-O-α-Neu5Ac-(6-O-α-L-Fucopyranosyl)-Hexane]	inhibit neutrophil migration into the peritoneum	about 30%	
CC(OCCCCCCOC1O[C@@H](C)[C@@H](O)[C@@H](O)[C@@H]1O)C(=O)O (stereo partly shown) [GM 1221]	inhibit neutrophil migration into the peritoneum		inhibits L-selectin binding
